{"source": "patent US20050032904A1", "about": "“Composition and use of allylamine derivatives” (priority 2003, published 2005)", "assay_type_in_all_cases": "cell-based, human", "key": {"[1]": {"system": "cdk4 kinase activity in HT 29 cells", "assay": "Immunoprecipitation and kinase activity assay", "conditions": "60 μM TB, 15 h; p53 His273 mutant", "description": "(§1) (Ko U, and […]. Genes & Development 1996; 10(9): 1054-72; Levine AJ., Cell 1997;88(3):323-31.). […] To further test this hypothesis, we examined the TB effects on the levels of p21/Cip1, p27/Kip1 and p53 protein, and the cdk4 kinase activity in three human cancer cell lines (COLO 205, HT 29 and Hep 3B). […] Antisense or sense p53 was added to COLO 205 at a final concentration of 20 μM at 16 h before the cell was challenged with 10% FCS and 60 μM TB treatment for additional 15 h. […] As previously described (Wu X, et. al., Oncogene 1996;12(7):1397-403.), the TB-treated cells were lysed in Rb lysis buffer, and immunoprecipitated with anti-cdk4 antibody (2 μg). The protein complexes in beads were washed twice with Rb lysis buffer and then once with Rb kinase assay buffer. The level of phosphorylated of Rb (for pRb), histone Hi (for cdk2) and glutathione s-transferase-Rb fusion protein (for cdk4) were measured by incubating the beads with 40 μl of hot Rb kinase solution [0.25 μl (2 μg) of Rb-GST fusion protein, 0.5 μl of (γ-^32P) ATP, 0.5 μl of 0.1 mM ATP and 38.75 μl of Rb kinase buffer] at 37° C. for 30 min, and then stopped by boiling the samples in SDS sample buffer for 5 min. The samples were analyzed by 12% SDS-PAGE, and the gel was then dried and subjected to autoradiography."}, "[2]": {"system": "cdk4 kinase activity in COLO 205 cells", "assay": "Immunoprecipitation and kinase activity assay", "conditions": "60 μM TB, 15 h after release from quiescence; p53 wild type", "description": "as §1"}, "[3]": {"system": "cdk4 kinase activity in Hep 3B cells", "assay": "Immunoprecipitation and kinase activity assay", "conditions": "60 μM TB, 15 h; p53 partial deletion", "description": "as §1"}, "[4]": {"system": "cell cycle regulatory proteins in COLO 205 cells", "assay": "Western blot of cell cycle regulatory proteins", "description": "They were then returned to culture media supplemented with 10% FCS and 0.05% DMSO with or without TB (60 μM), and at various times thereafter, they were harvested for protein extraction and Western blot analysis. Based on the FACS analysis in the COLO 205 cells, 0, 15, 18 and 24 h after release from quiescence represents the G0/G1, S, G2/M and 2nd G0/G1 phase of the cell cycle, respectively. (FIG. 2A). Accordingly, these time points were selected for protein extraction and Western blot analysis to examine the effects of TB on the expression of cell cycle regulatory proteins. In FIG. 6, (A) In the DMSO-treated COLO 205, 10% FCS caused a transit increase in p21/Cip1 protein (upper panel). […] The COLO 205 cells were synchronized with 0.04% FCS for 24 h, and then released into complete medium (10% FCS) containing TB (60 μM) for the indicated time points. COLO 205 cells were also treated with DMSO (0.05%, v/v) as a control group. Protein extracts (100 μg/lane) were separated by SDS-PAGE, probed with specific antibodies, and detected using the NBT/BCIP system. […] (LaBaer J, et. al., Genes & Development 1997;11(7):847-62.).\nIn contrast, TB induced apoptosis in the HL 60 (p53 null) and Hep 3B (p53 partial deleted). […] To further test this hypothesis, the dose effects of TB on the levels of cell cycle regulatory protein were conducted in four different human cancer cell lines, COLO 205 (p53 wild type), HT 29 (p53 His^273 mutant), Hep 3B (p53 partial deleted) and HL 60 (p53 null). […] The cells were rendered quiescent for 24 h, and then challenged with 10% FCS and treated with various concentrations of TB (60-150 μM) for additional 15 h. Protein extracts (100 μg/lane) were separated by SDS-PAGE, probed with specific antibodies, and detected using the NBT/BCIP system. Membranes were also probed with anti-GAPDH antibody to correct for differences in protein loading.\nAs previously described (Chen R J, et. al., Toxicology & Applied Pharmacology 2000;169(2):132-41.), the frozen tumor was pulverized in liquid N2, and then mixed with lysis buffer (Tris-HCl 0.5 M, pH 6.8, SDS 0.4%). For cell cultures, the cells were seeded onto 150-mm dishes and grown in RPMI 1640 (for COLO 205, HT 29 and HL 60 cells) or MEM (for Hep 3B) supplemented with 10% FCS. After the cells had grown to subconfluence, they were rendered quiescent. The cells were released from quiescence with culture medium supplemented with 10% FCS. TB in 0.05% DMSO or 0.05% DMSO without TB was added to the cells at various concentrations and the mixture was allowed to incubate for 17 h. Western blot analysis was performed as previously described (Chen R J, et. al., Toxicology & Applied Pharmacology 2000;169(2):132-41; Lee W S, et. al., Circulation Research 1998;82(8):845-51.). Immunodetection was carried by probing with proper dilutions of specific antibodies at room temperature for 2 h. Anti-p21/Cip1, anti-p27/Kip1, anti-p53, anti-GAPDH monoclonal antibodies (Santa Cruz, Inc. CA); anti-cyclin B1, D1, and D3, anti-cdk2 and cdk4, and PCNA monclonal antibodies (Transduction Laboratories, Lexington, Ky.) were used at a concentration of 1:1,000 dilution. Anti-cyclin A and E polyclonal antibodies (Transduction, San Diego, Calif.) were used at a concentration of 1:250 dilution. The secondary antibodies, alkaline phosphatase-coupled anti-mouse or anti-rabbit antibody (Jackson, Westgrove Pa.), was incubated at room temperature for 1 h at a concentration of 1:5,000 or 1:1,000 dilution, respectively. The specific protein complexes were identified by incubating with the colorigenic substrates (nitro blue tetrazolium, NBT, and 5-bromo-4-chloro-3-indolyl-phosphate, BCIP; Sigma Chemical Co., St. Louis, Mo.). In each experiment, membranes were also probed with anti-GAPDH antibody to correct for differences in protein loading."}, "HT 29 cells": {"system": "HT 29 cells", "assay": "Flow cytometry (FACS) cell cycle analysis"}, "[5]": {"conditions": "TB 60-150 μM, 15 h, dose-dependent"}}}
{"smiles": "CN(C/C=C/C#CC(C)(C)C)Cc1cccc2ccccc12", "note": "[TB, 1-Naphthalenemethanamine, N-(6,6-dimethyl-2-hepten-4-ynyl)-N-methyl-, (E)-]", "values": [{"measurement": "assayable cdk4 kinase activity", "setting": "[1]", "value": "slight decrease"}, {"measurement": "assayable cdk4 kinase activity", "setting": "[2]", "value": "strong decrease"}, {"measurement": "assayable cdk4 kinase activity", "setting": "[3]", "value": "slight decrease"}, {"measurement": "p53 and p21 electrophoretogram bands", "setting": "[4]; 60 μM TB alone, 15 h", "value": "increased in intensity"}, {"measurement": "p21/Cip1 protein level, time effect", "setting": "[4]; TB 60 μM after release from quiescence", "value": "persistent increase"}, {"measurement": "p27/Kip1 protein levels, time effect", "setting": "[4]; TB 60 μM, 0-24 h after 10% FCS", "value": "maintained at high levels"}, {"measurement": "Cyclin A2 and cyclin B levels", "setting": "[4]; TB 60 μM, time course", "value": "also downregulated"}, {"measurement": "level of pRB protein (phosphorylated Rb)", "setting": "[4]; TB 60 μM, time course", "value": "downregulated"}, {"measurement": "levels of cyclin D1 and PCNA protein", "setting": "[4]; TB 60 μM, time course", "value": "not changed"}, {"measurement": "levels of cyclin D3, cdk2 and cdk4 protein", "setting": "[4]; TB 60 μM, time course", "value": "downregulated"}, {"measurement": "levels of cyclin E protein", "setting": "[4]; TB 60 μM, time course", "value": "slightly elevated"}, {"measurement": "levels of cyclin D3 and cdk4, dose effect", "setting": "[4]; [5]", "value": "decreased"}, {"measurement": "levels of p53, p21/Cip1 and p27/Kip1 protein, dose effect", "setting": "[4]; [5]", "value": "increased"}, {"measurement": "accumulation of cells at the G0/G1 phase", "setting": "HT 29 cells; 90 μM TB after release from quiescence", "value": "> 90", "unit": "%"}, {"measurement": "G0/G1 arrest, dose effect", "setting": "HT 29 cells; various concentrations of TB, 15 h after release from quiescence, dose-dependent", "value": "induced G0/G1 arrest"}]}
